Measurements: the supplement of paper PMC10307832

Legend:
Assay in all cases: relative viability (nuclei count vs DMSO), 5 days (fraction); higher = more cells survive
OSI-027 + Alpelisib = compound: COc1cccc2cc(-c3nc([C@H]4CC[C@H](C(=O)O)CC4)n4ncnc(N)c34)[nH]c12 [OSI-027] + Cc1nc(NC(=O)N2CCC[C@H]2C(N)=O)sc1-c1ccnc(C(C)(C)C(F)(F)F)c1 [Alpelisib] (partner 2 µM)
Outline: (§1)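 After 5 days of treatment, lung cancer cells in 1536-well plates were fixed and stained in a single step (final 0.05% Triton X-100, 1% formaldehyde, 1 ug/ml Hoechst) and their nuclei counted on 4× images. Treatment had been applied by pin tool the day after seeding as one drug alone or as a fixed anchor-drug dose with five library-drug doses (not always all listed) in √10 steps. Relative viability is the nuclei count of treated wells divided by that of vehicle wells, and values are medians of duplicate plates.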

OSI-027 + Dasatinib = compound: COc1cccc2cc(-c3nc([C@H]4CC[C@H](C(=O)O)CC4)n4ncnc(N)c34)[nH]c12 [OSI-027] + Cc1nc(Nc2ncc(C(=O)Nc3c(C)cccc3Cl)s2)cc(N2CCN(CCO)CC2)n1 [Dasatinib] (partner 0.075 µM)
Outline: as §1

Alpelisib + Luminespib = compound: Cc1nc(NC(=O)N2CCC[C@H]2C(N)=O)sc1-c1ccnc(C(C)(C)C(F)(F)F)c1 [Alpelisib] + CCNC(=O)c1noc(-c2cc(C(C)C)c(O)cc2O)c1-c1ccc(CN2CCOCC2)cc1 [Luminespib] (partner 0.01 µM)
Outline: as §1

OSI-027 + Luminespib = compound: COc1cccc2cc(-c3nc([C@H]4CC[C@H](C(=O)O)CC4)n4ncnc(N)c34)[nH]c12 [OSI-027] + CCNC(=O)c1noc(-c2cc(C(C)C)c(O)cc2O)c1-c1ccc(CN2CCOCC2)cc1 [Luminespib] (partner 0.01 µM)
Outline: as §1

| Cell Line | relative viability (OSI-027 + Alpelisib; first compound 0.01 µM) | relative viability (OSI-027 + Alpelisib; first compound 0.03162 µM) | relative viability (OSI-027 + Alpelisib; first compound 0.1 µM) | relative viability (OSI-027 + Alpelisib; first compound 0.3162 µM) | relative viability (OSI-027 + Alpelisib; first compound 1 µM) | relative viability (OSI-027 + Dasatinib; first compound 0.01 µM) | relative viability (OSI-027 + Dasatinib; first compound 0.03162 µM) | relative viability (OSI-027 + Dasatinib; first compound 0.1 µM) | relative viability (OSI-027 + Dasatinib; first compound 0.3162 µM) | relative viability (OSI-027 + Dasatinib; first compound 1 µM) | relative viability (Alpelisib + Luminespib; first compound 0.04 µM) | relative viability (Alpelisib + Luminespib; first compound 0.1265 µM) | relative viability (Alpelisib + Luminespib; first compound 0.4 µM) | relative viability (Alpelisib + Luminespib; first compound 1.265 µM) | relative viability (Alpelisib + Luminespib; first compound 4 µM) | relative viability (OSI-027 + Luminespib; first compound 0.01 µM) | relative viability (OSI-027 + Luminespib; first compound 0.03162 µM) | relative viability (OSI-027 + Luminespib; first compound 0.1 µM) | relative viability (OSI-027 + Luminespib; first compound 0.3162 µM) | relative viability (OSI-027 + Luminespib; first compound 1 µM) |
| --- | --- | --- | --- | --- | --- | --- | --- | --- | --- | --- | --- | --- | --- | --- | --- | --- | --- | --- | --- | --- |
| HCC-15 | 0.928 | 0.826 | 0.806 | 0.674 | 0.288 | 0.551 | 0.656 | 0.624 | 0.486 | 0.366 | 0.252 | 0.292 | 0.336 | 0.423 | 0.145 | 0.347 | 0.501 | 0.397 | 0.264 | 0.339 |
| HCC-44 | 0.795 | 0.775 | 0.738 | 0.574 | 0.215 | – | – | – | – | – | 1.11 | 1.08 | 1.2 | 0.614 | 0.84 | 1.33 | 0.89 | 0.903 | 0.759 | 0.512 |
| HCC-78 | 0.337 | 0.3 | 0.248 | 0.14 | 0.163 | 0.329 | 0.356 | 0.3 | 0.266 | 0.325 | – | – | – | – | – | – | – | – | – | – |
| HCC-366 | 0.373 | 0.423 | 0.256 | 0.243 | 0.1 | 0.679 | 0.708 | 0.61 | 0.477 | 0.395 | – | – | – | – | – | – | – | – | – | – |
| HCC-827 | 0.871 | 1.03 | 0.921 | 0.736 | 0.281 | 0.298 | 0.295 | 0.326 | 0.226 | 0.222 | 0.703 | 0.594 | 0.586 | 0.406 | 0.215 | 0.775 | 0.75 | 0.51 | 0.337 | 0.171 |
| HOP-62 | 1.13 | 0.881 | 0.934 | 0.81 | 0.333 | 0.6 | 0.675 | 0.591 | 0.556 | 0.301 | 0.943 | 0.957 | 1.04 | 0.83 | 0.956 | 0.954 | 0.904 | 0.957 | 0.926 | 0.363 |
| IA-LM | 0.791 | 0.686 | 0.455 | 0.322 | 0.113 | – | – | – | – | – | – | – | – | – | – | – | – | – | – | – |
| LC-2-ad | 0.886 | 0.876 | 0.723 | 0.74 | 0.304 | 0.585 | 0.537 | 0.494 | 0.455 | 0.333 | 0.985 | 0.97 | 1.3 | 0.846 | 0.827 | 1.05 | 1.1 | 0.862 | 0.874 | 0.659 |
| LCLC-97TM1 | 0.208 | 0.207 | 0.203 | 0.145 | 0.123 | 0.91 | 0.907 | 0.849 | 0.746 | 0.573 | 0.852 | 0.707 | 0.705 | 0.279 | 0.23 | 0.846 | 0.688 | 0.776 | 0.378 | 0.211 |
| LCLC-103H | 0.852 | 0.922 | 0.991 | 0.877 | 0.767 | 0.48 | 0.497 | 0.434 | 0.439 | 0.27 | 0.97 | 0.993 | 1.04 | 0.72 | 0.735 | 1.03 | 0.994 | 0.908 | 0.85 | 0.504 |
| LK-2 | 1.18 | 0.835 | 0.84 | 0.321 | 0.165 | 0.343 | 0.266 | 0.24 | 0.203 | 0.225 | 0.139 | 0.159 | 0.196 | 0.191 | 0.176 | 0.172 | 0.193 | 0.159 | 0.173 | 0.137 |
| NCI-H522 | – | – | – | – | – | 0.963 | 0.944 | 0.723 | 0.629 | 0.736 | 1.09 | 1.21 | 1.13 | 0.881 | 0.981 | 1.2 | 1.25 | 1.19 | 0.698 | 0.58 |
| NCI-H1299 | 1.11 | 1.05 | 1.12 | 1.08 | 0.786 | – | – | – | – | – | – | – | – | – | – | – | – | – | – | – |
| NCI-H1623 | – | – | – | – | – | 0.52 | 0.607 | 0.455 | 0.365 | 0.275 | 0.487 | 0.374 | 0.477 | 0.385 | 0.417 | 0.511 | 0.423 | 0.322 | 0.323 | 0.202 |
| NCI-H1650 | – | – | – | – | – | 0.313 | 0.347 | 0.255 | 0.279 | 0.229 | 0.208 | 0.192 | 0.24 | 0.19 | 0.18 | 0.208 | 0.234 | 0.208 | 0.214 | 0.219 |
| NCI-H1703 | 0.32 | 0.285 | 0.284 | 0.279 | 0.238 | – | – | – | – | – | – | – | – | – | – | – | – | – | – | – |
| NCI-H2342 | – | – | – | – | – | 0.316 | 0.278 | 0.314 | 0.296 | 0.316 | 0.762 | 0.696 | 0.686 | 0.568 | 0.488 | 0.783 | 0.616 | 0.82 | 0.617 | 0.514 |
| SW 900 | – | – | – | – | – | – | 0.6 | 0.641 | 0.487 | 0.288 | 0.163 | 0.168 | 0.177 | 0.138 | 0.173 | – | 0.153 | 0.169 | 0.171 | 0.163 |
